Results from patent publication US10246453B2, “Benzenesulfonamide compounds and their use as therapeutic agents” (Xenon Pharmaceuticals Inc., priority 2016, dated 2019).

Tests used:
NaV1.1 = NaV1.1 (Homo sapiens (Human), UniProt P35498); test: Sodium Influx Assay (Flux), NaV1.1; format: cell-based; conditions: Trex HEK293 cells, ANG2 dye; arithmetic mean
NaV1.6 = NaV1.6 (Homo sapiens (Human), UniProt Q9UQD0); test: Sodium Influx Assay (Flux), NaV1.6; conditions: read-out: Flux NaV1.6 IC50; Trex HEK293 cells, ANG2 dye; arithmetic mean
NaV1.5 = NaV1.5 (Homo sapiens (Human), UniProt Q14524); test: Sodium Influx Assay (Flux), NaV1.5; conditions: read-out: Flux NaV1.5 IC50; Trex HEK293 cells, ANG2 dye; arithmetic mean
NaV1.5, sequence (Q14524 other isoform, or with tags, fused parts or gaps): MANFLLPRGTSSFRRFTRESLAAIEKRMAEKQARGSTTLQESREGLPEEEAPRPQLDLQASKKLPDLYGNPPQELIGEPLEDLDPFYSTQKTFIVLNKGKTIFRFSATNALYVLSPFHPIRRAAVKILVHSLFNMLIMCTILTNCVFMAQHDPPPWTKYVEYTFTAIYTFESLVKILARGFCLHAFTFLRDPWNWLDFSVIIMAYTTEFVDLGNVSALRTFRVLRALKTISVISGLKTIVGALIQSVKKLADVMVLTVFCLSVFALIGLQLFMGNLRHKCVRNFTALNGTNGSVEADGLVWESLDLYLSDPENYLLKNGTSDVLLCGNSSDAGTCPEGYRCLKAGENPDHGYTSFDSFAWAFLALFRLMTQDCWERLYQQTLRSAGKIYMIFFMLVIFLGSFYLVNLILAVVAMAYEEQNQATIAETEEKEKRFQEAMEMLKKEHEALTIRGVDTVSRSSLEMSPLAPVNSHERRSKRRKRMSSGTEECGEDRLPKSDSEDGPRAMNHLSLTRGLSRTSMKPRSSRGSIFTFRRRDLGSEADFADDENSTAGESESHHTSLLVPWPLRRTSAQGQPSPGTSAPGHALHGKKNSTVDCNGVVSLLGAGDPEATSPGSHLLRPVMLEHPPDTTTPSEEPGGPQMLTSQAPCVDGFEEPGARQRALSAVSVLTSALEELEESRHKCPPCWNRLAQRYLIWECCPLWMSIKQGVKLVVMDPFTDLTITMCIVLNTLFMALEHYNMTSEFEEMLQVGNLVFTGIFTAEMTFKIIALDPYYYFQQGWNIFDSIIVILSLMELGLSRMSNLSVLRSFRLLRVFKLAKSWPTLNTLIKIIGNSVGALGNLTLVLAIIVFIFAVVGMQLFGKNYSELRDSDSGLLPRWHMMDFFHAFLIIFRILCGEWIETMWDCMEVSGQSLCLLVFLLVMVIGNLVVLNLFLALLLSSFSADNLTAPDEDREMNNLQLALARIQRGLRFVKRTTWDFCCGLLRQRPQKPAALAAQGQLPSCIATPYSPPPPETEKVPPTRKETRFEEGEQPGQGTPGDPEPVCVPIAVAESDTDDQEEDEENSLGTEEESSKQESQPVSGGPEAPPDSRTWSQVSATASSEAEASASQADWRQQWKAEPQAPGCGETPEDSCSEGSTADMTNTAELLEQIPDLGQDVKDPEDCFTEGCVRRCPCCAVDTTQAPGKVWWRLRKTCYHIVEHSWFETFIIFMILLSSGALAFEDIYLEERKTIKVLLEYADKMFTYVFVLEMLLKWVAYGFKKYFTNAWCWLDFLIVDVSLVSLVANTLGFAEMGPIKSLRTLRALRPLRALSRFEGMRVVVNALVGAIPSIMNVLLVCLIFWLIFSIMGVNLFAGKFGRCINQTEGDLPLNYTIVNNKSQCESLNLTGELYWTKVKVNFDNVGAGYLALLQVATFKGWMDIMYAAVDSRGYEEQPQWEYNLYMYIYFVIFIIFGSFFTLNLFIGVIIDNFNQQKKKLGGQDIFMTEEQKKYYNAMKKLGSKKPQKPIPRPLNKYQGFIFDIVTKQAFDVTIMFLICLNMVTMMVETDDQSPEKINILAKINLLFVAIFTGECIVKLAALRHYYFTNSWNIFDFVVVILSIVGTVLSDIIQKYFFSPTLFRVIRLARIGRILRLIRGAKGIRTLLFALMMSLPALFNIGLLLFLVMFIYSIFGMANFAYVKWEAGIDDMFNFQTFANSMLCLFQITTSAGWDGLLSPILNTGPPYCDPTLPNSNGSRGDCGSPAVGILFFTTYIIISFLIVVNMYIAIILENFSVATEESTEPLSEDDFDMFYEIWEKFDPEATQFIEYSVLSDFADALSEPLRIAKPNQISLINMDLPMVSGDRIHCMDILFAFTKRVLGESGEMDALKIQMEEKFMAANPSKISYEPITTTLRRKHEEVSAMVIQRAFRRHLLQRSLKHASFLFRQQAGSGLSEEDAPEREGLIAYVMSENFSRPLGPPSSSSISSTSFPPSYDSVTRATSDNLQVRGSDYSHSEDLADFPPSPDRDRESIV

## CN(c1cc(F)c(S(=O)(=O)Nc2cscn2)cc1Cl)[C@H]1CCN(Cc2c(F)cccc2Cl)C1 [Example 169, (S)-5-chloro-4-((1-(2-chloro-6-fluorobenzyl)pyrrolidin-3-yl)(methyl)amino)-2-fluoro-N-(thiazol-4-yl)benzene-sulfonamide 2,2,2-trifluoroacetate]
NaV1.1
  IC50: 4.62 µM
NaV1.6
  IC50: 0.821 µM
NaV1.5
  IC50: 5.27 µM

## CCCc1ccc(CN2CC[C@H](N(C)c3cc(F)c(S(=O)(=O)Nc4cscn4)cc3Cl)C2)cc1 [Example 171, (S)-5-chloro-2-fluoro-4-(methyl(1-(4-propylbenzyl)-pyrrolidin-3-yl)amino)-N-(thiazol-4-yl)benzene-sulfonamide]
NaV1.1
  IC50: 2.35 µM
NaV1.6
  IC50: 1.86 µM
NaV1.5
  IC50: 4.96 µM

## Cc1ccc(F)c(CN2CC[C@H](N(C)c3cc(F)c(S(=O)(=O)Nc4cscn4)cc3Cl)C2)c1 [Example 172, (S)-5-chloro-2-fluoro-4-((1-(2-fluoro-5-methylbenzyl)-pyrrolidin-3-yl)(methyl)amino)-N-(thiazol-4-yl)benzene-sulfonamide 2,2,2-trifluoroacetate]
NaV1.1
  IC50: 5.45 µM
NaV1.6
  IC50: 0.432 µM
NaV1.5
  IC50: 4.97 µM

## COc1ccc(F)c(CN2CC[C@H](N(C)c3cc(F)c(S(=O)(=O)Nc4cscn4)cc3Cl)C2)c1 [Example 173, (S)-5-chloro-2-fluoro-4-((1-(2-fluoro-5-methoxybenzyl)-pyrrolidin-3-yl)(methyl)amino)-N-(thiazol-4-yl)benzene-sulfonamide 2,2,2-trifluoroacetate]
NaV1.1
  IC50: 8.75 µM
NaV1.6
  IC50: 3.34 µM
NaV1.5
  IC50: 9.86 µM

## COC(=O)c1cccc(CN2CC[C@H](N(C)c3cc(F)c(S(=O)(=O)Nc4cscn4)cc3Cl)C2)c1 [Example 174, methyl (S)-3-((3-((2-chloro-5-fluoro-4-(N-(thiazol-4-yl)sulfamoyl)-phenyl)(methyl)-amino)pyrrolidin-1-yl)methyl)benzoate]
NaV1.1
  IC50: 10.2 µM
NaV1.6
  IC50: 9.16 µM
NaV1.5
  IC50: 16.2 µM

## CN(c1cc(F)c(S(=O)(=O)Nc2cscn2)cc1Cl)[C@H]1CCN(CCC(C)(C)C)C1 [Example 175, (S)-5-chloro-4-((1-(3,3-dimethylbutyl)-pyrrolidin-3-yl)(methyl)amino)-2-fluoro-N-(thiazol-4-yl)benzene-sulfonamide 2,2,2-trifluoroacetate]
NaV1.1
  IC50: 13.2 µM
NaV1.6
  IC50: 2.55 µM
NaV1.5
  IC50: > 30 µM

## CC(C)Oc1cccc(CN2CC[C@H](N(C)c3cc(F)c(S(=O)(=O)Nc4cscn4)cc3Cl)C2)c1 [Example 177, (S)-5-chloro-2-fluoro-4-((1-(3-isopropoxybenzyl)-pyrrolidin-3-yl)(methyl)amino)-N-(thiazol-4-yl)benzene-sulfonamide compound with triethylamine (1:0.35)]
NaV1.1
  IC50: 3.91 µM
NaV1.6
  IC50: 3.15 µM
NaV1.5
  IC50: 7.52 µM

## CN(c1cc(F)c(S(=O)(=O)Nc2cscn2)cc1Cl)[C@H]1CCN(Cc2cccc(Br)n2)C1 [Example 178, (S)-4-((1-((6-bromopyridin-2-yl)methyl)pyrrolidin-3-yl)(methyl)amino)-5-chloro-2-fluoro-N-(thiazol-4-yl)benzene-sulfonamide]
NaV1.1
  IC50: 12.9 µM
NaV1.6
  IC50: 1.09 µM
NaV1.5
  IC50: 16 µM

## CN(c1cc(F)c(S(=O)(=O)Nc2cscn2)cc1Cl)[C@H]1CCN(Cc2ccc(F)cc2)C1 [Example 180, (S)-5-chloro-2-fluoro-4-((1-(4-fluorobenzyl)-pyrrolidin-3-yl)(methyl)amino)-N-(thiazol-4-yl)benzene-sulfonamide]
NaV1.1
  IC50: 16.8 µM
NaV1.6
  IC50: 5.29 µM
NaV1.5
  IC50: 25.4 µM

## CN(c1cc(F)c(S(=O)(=O)Nc2cscn2)cc1Cl)[C@H]1CCN(Cc2cccn2C)C1 [Example 181, (S)-5-chloro-2-fluoro-4-(methyl(1-((1-methyl-1H-pyrrol-2-yl)methyl)pyrrolidin-3-yl)amino)-N-(thiazol-4-yl)benzene-sulfonamide]
NaV1.1
  IC50: > 30 µM
NaV1.6
  IC50: 3.15 µM
NaV1.5
  IC50: > 30 µM

## CN(c1cc(F)c(S(=O)(=O)Nc2cscn2)cc1Cl)[C@H]1CCN(Cc2c[nH]c3ccccc23)C1 [Example 182, (S)-4-((1-((1H-indol-3-yl)methyl)pyrrolidin-3-yl)(methyl)amino)-5-chloro-2-fluoro-N-(thiazol-4-yl)benzene-sulfonamide 2,2,2-trifluoroacetate]
NaV1.1
  IC50: 9.41 µM
NaV1.6
  IC50: 0.877 µM
NaV1.5
  IC50: 9.86 µM

## CN(c1cc(F)c(S(=O)(=O)Nc2cscn2)cc1Cl)[C@H]1CCN(Cc2ccn(C)n2)C1 [Example 183, (S)-5-chloro-2-fluoro-4-(methyl(1-((1-methyl-1H-pyrazol-3-yl)methyl)pyrrolidin-3-yl)amino)-N-(thiazol-4-yl)benzene-sulfonamide]
NaV1.1
  IC50: > 30 µM
NaV1.6
  IC50: 6.93 µM
NaV1.5
  IC50: > 30 µM

## CN(c1cc(F)c(S(=O)(=O)Nc2cscn2)cc1Cl)[C@H]1CCN(Cc2ncc3ccccn23)C1 [Example 184, (S)-5-chloro-2-fluoro-4-((1-(imidazo[1,5-a]pyridin-3-ylmethyl)pyrrolidin-3-yl)(methyl)amino)-N-(thiazol-4-yl)benzene-sulfonamide]
NaV1.1
  IC50: > 30 µM
NaV1.6
  IC50: 5.38 µM
NaV1.5
  IC50: > 30 µM

## CN(c1cc(F)c(S(=O)(=O)Nc2cscn2)cc1Cl)[C@H]1CCN(Cc2ccnc(C(F)(F)F)c2)C1 [Example 185, (S)-5-chloro-2-fluoro-4-(methyl(1-((2-(trifluoromethyl)-pyridin-4-yl)methyl)pyrrolidin-3-yl)amino)-N-(thiazol-4-yl)benzene-sulfonamide]
NaV1.1
  IC50: 8.81 µM
NaV1.6
  IC50: 7.02 µM
NaV1.5
  IC50: 22.4 µM

## CN(c1cc(F)c(S(=O)(=O)Nc2cscn2)cc1Cl)[C@H]1CCN(Cc2cccc3ccncc23)C1 [Example 186, (S)-5-chloro-2-fluoro-4-((1-(isoquinolin-8-ylmethyl)pyrrolidin-3-yl)(methyl)amino)-N-(thiazol-4-yl)benzene-sulfonamide 2,2,2-trifluoroacetate]
NaV1.1
  IC50: 19.2 µM
NaV1.6
  IC50: 3.27 µM
NaV1.5
  IC50: 20.1 µM

## CN(c1cc(F)c(S(=O)(=O)Nc2cscn2)cc1Cl)[C@H]1CCN(Cc2cccc(C(F)(F)F)n2)C1 [Example 187, (S)-5-chloro-2-fluoro-4-(methyl(1-((6-(trifluoromethyl)-pyridin-2-yl)methyl)pyrrolidin-3-yl)amino)-N-(thiazol-4-yl)benzene-sulfonamide]
NaV1.1
  IC50: 17.3 µM
NaV1.6
  IC50: 1.01 µM
NaV1.5
  IC50: 25.4 µM

## CN(c1cc(F)c(S(=O)(=O)Nc2cscn2)cc1Cl)[C@H]1CCN(Cc2ccc(Cl)cc2)C1 [Example 188, (S)-5-chloro-4-((1-(4-chlorobenzyl)-pyrrolidin-3-yl)(methyl)amino)-2-fluoro-N-(thiazol-4-yl)benzene-sulfonamide]
NaV1.1
  IC50: 3.25 µM
NaV1.6
  IC50: 4.15 µM
NaV1.5
  IC50: 8.24 µM

## Cc1cccc(CN2CC[C@H](N(C)c3cc(F)c(S(=O)(=O)Nc4cscn4)cc3Cl)C2)c1F [Example 191, (S)-5-chloro-2-fluoro-4-((1-(2-fluoro-3-methylbenzyl)-pyrrolidin-3-yl)(methyl)amino)-N-(thiazol-4-yl)benzene-sulfonamide]
NaV1.1
  IC50: 8.9 µM
NaV1.6
  IC50: 0.587 µM
NaV1.5
  IC50: 8.21 µM

## COc1cccc(CN2CC[C@H](N(C)c3cc(F)c(S(=O)(=O)Nc4cscn4)cc3Cl)C2)n1 [Example 194, (S)-5-chloro-2-fluoro-4-((1-((6-methoxypyridin-2-yl)methyl)pyrrolidin-3-yl)(methyl)amino)-N-(thiazol-4-yl)benzene-sulfonamide]
NaV1.1
  IC50: 29.2 µM
NaV1.6
  IC50: 3.2 µM
NaV1.5
  IC50: 23.5 µM
